The results in this text go back to paper doi:10.1101/2022.06.13.496020v1 (biorxiv, 2022).

Holding throughout (assay): LANCE cAMP accumulation, transfected CHO-K1 cells
Common to all, as to format: cell-based
For orientation: In TR-FRET formats the signal depends on donor and acceptor labels being close together.

Experiment [1] deals with TSHR (full-length, 21-764) (Homo sapiens, UniProt P16473, I640A).
In experiment [2] the target is TSHR (full-length, 21-764) (Homo sapiens, UniProt P16473, V586A).
In experiment [3] the target is TSHR (full-length, 21-764) (Homo sapiens, UniProt P16473, M572A).
Experiment [4] has as its target TSHR (full-length, 21-764) (Homo sapiens, UniProt P16473, A644F).
The target in experiment [5] is TSHR (full-length, 21-764) (Homo sapiens, UniProt P16473).

Each structure is given as a SMILES string.

Chain of TSHR (full-length, 21-764) (Homo sapiens, UniProt P16473, M572A) (P16473 21-764 M572A): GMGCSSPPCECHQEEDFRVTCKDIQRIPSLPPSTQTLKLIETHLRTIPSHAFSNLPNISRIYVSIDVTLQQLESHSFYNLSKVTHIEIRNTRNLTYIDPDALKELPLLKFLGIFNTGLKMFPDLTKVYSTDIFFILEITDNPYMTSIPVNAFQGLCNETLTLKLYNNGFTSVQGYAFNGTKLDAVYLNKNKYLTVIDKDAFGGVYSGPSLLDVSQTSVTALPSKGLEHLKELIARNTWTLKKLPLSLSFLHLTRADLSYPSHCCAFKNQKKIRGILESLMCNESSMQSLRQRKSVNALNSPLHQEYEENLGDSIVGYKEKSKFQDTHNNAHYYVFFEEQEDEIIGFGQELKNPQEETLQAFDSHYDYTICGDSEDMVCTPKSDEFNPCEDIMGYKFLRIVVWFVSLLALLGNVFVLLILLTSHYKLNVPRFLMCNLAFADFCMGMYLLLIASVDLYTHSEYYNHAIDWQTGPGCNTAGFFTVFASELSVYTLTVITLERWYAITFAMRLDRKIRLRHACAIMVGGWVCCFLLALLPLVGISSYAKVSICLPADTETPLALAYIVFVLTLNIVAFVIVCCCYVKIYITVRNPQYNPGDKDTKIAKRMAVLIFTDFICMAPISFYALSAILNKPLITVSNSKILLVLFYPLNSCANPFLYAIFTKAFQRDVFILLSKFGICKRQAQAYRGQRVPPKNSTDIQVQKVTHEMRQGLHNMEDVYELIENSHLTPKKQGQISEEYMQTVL
Chain of TSHR (full-length, 21-764) (Homo sapiens, UniProt P16473, I640A) (P16473 21-764 I640A): as the sequence (P16473 21-764 M572A) above, with A552M, I620A counted along it
Chain of TSHR (full-length, 21-764) (Homo sapiens, UniProt P16473, A644F) (P16473 21-764 A644F): as the sequence (P16473 21-764 M572A) above, with A552M, A624F counted along it
Chain of TSHR (full-length, 21-764) (Homo sapiens, UniProt P16473, V586A) (P16473 21-764 V586A): as the sequence (P16473 21-764 M572A) above, with A552M, V566A counted along it
Chain of TSHR (full-length, 21-764) (Homo sapiens, UniProt P16473) (P16473 21-764): as the sequence (P16473 21-764 M572A) above, with A552M counted along it

As for `COc1ccc([C@H]2Nc3cccc(O)c3C(=O)N2Cc2ccccc2)cc1COc1ccc(NC(C)=O)cc1` [ML-109], the EC50 in experiment [1] is 1150 nM; in experiment [2], 2040 nM; in experiment [3], 2400 nM; in experiment [4], 1780 nM; in experiment [5], 331 nM.

One may read the EC50 as the concentration that produces a half-maximal response.
